These results are taken from patent US8986994B2, “Substituted pyridines and pyrimidines” (Technische Universitaet Wien, priority 2009, dated 2015).

Data set [1] concerns TOPflash (C2C12 cells). As to the kind of experiment: TOPflash luciferase reporter assay in C2C12 cells. The format is cell-based. Conditions: Mus musculus, read-out: TOPflash activity.
For data set [2], the system named is Nkx2.5 (P19 cells). As to the kind of experiment: Nkx2.5 luciferase reporter assay in P19 cells. Format: cell-based. Particulars: Mus musculus, read-out: Nkx2.5 activity. In general terms: In a reporter assay the amount or activity of a reporter protein is the signal.
Data set [3] has as its system ANF (human primary skeletal myoblasts). As to the kind of experiment: ANF reporter assay in human primary skeletal myoblasts. The format is cell-based. Particulars: 1 μM for 6 days, two experiments.
Data set [4] concerns ANF (P19 cells). As to the kind of experiment: ANF promoter luciferase reporter assay in P19 cells. The format is cell-based, mouse. Particulars: for fold induction at 1 µM: Mus musculus, read-out: ANF activity; for luciferase signal in all three reporter assays: ANF, TOPflash and Nkx2.5 reporter assays together.
For data set [5], the system named is Nkx2.5 (C2C12 cells). As to the kind of experiment: Nkx2.5 luciferase reporter assay in C2C12 cells. The format is cell-based. Conditions: Mus musculus, read-out: Nkx2.5 activity.
Data set [6] concerns TOPflash (P19 cells). As to the kind of experiment: TOPflash luciferase reporter assay in P19 cells. Format: cell-based. Particulars: Mus musculus, read-out: TOPflash activity.
The subject of data set [7] is ANF (C2C12 cells). As to the kind of experiment: ANF promoter luciferase reporter assay in C2C12 cells. Format: cell-based, mouse. Particulars: for luciferase signal in all three reporter assays: ANF, TOPflash and Nkx2.5 reporter assays together; for fold induction at 1 µM: Mus musculus, read-out: ANF activity.
The test system of data set [8] is Na currents in C2C12 cells. Format: cell-based, mouse. Particulars: 1 μM for 8 days.
The test system of data set [9] is Ca currents in C2C12 cells. As to the kind of experiment: Electrophysiological testing, whole cell patch clamp: Ca currents. The format is cell-based, mouse. In general terms: The patch-clamp technique gives a direct electrical read-out from membranes.
Setting [10] is: 192 h, C2C12 cells, 1 μM for 8 days, luciferase signal vs control (untreated cells).
[11] abbreviates: 192 h, P19 cells, 1 μM for 8 days, luciferase signal vs control (untreated cells).

SMILES strings stand for the structures. Like-named read-outs stand apart in the source and are kept apart here.

In the case of `COc1ccc(Nc2cccc(NCCO)n2)cc1` [example 42, 2-(6-(4-Methoxyphenylamino)pyridin-2-ylamino)ethan-1-ol], the fold induction at 1 µM in data set [1] (setting [10]) was 1.3 to 2; in data set [2] (setting [11]), 1.3 to 2; in [4] (setting [11]) it was 1.3 to 2; in data set [5] (setting [10]), 1.3 to 2; in data set [6] (setting [11]) it was above 2; in data set [7] (setting [10]), 1.3 to 2. In addition, the “luciferase signal in the ANF reporter assay” value in [3] is on record as “generated an increase in the luciferase signal”. For the same compound, the “luciferase signal in all three reporter assays” value in data set [4] (P19 cells, 1 μM for 8 days) was “increase in the luciferase signal in all three reporter assays”; in [7] (C2C12 cells, 1 μM for 8 days) it was “increase in the luciferase signal in all three reporter assays”.
As usually defined, the melting point is the temperature, or range, at which the solid turns liquid. Compound `COc1ccc(Nc2cc(NCCCO)ncn2)cc1` [example 2, 3-(6-(4-Methoxyphenylamino)pyrimidine-4-ylamino)propan-1-ol] came in with a melting point of 151 to 152 °C. For the same compound, the fold induction at 1 µM in [1] (setting [10]) was below 1.3. Moreover, the fold induction at 1 µM in data set [2] (setting [11]) is below 1.3. In addition, the “tetrodotoxin (TTX)-resistance of the Na currents” value in [8] is “moderately increase”. For the same compound, the fold induction at 1 µM in [4] (setting [11]) is 1.3 to 2. Further, the fold induction at 1 µM in data set [5] (setting [10]) is 1.3 to 2. Besides, in data set [6] (setting [11]), the fold induction at 1 µM is above 2. Also, in [7] (setting [10]), the fold induction at 1 µM is below 1.3.
For `OCCCNc1cc(Nc2ccc(N3CCOCC3)cc2)ncn1` [example 6, 3-(6-(4-Morpholinophenylamino)pyrimidin-4-ylamino)propan-1-ol], the melting point was 198 to 199 °C. In addition, in data set [1] (setting [10]), the fold induction at 1 µM is below 1.3. The fold induction at 1 µM in [2] (setting [11]) was below 1.3. Besides, in data set [4] (setting [11]), the fold induction at 1 µM was 1.3 to 2. Also, the fold induction at 1 µM in data set [5] (setting [10]) was in the range of 1.3 to 2. For the same compound, the fold induction at 1 µM in data set [6] (setting [11]) is below 1.3. Besides, in data set [7] (setting [10]), the fold induction at 1 µM fell in the range of 1.3 to 2.
In turn, `OCCNc1cc(Nc2ccc(N3CCOCC3)cc2)ncn1` [example 4, 2-(6-(4-Morpholinophenylamino)pyrimidin-4-ylamino)ethan-1-ol] had a melting point of 204 to 207 °C. Moreover, the fold induction at 1 µM in data set [1] (setting [10]) is below 1.3. Besides, in data set [2] (setting [11]), the fold induction at 1 µM is below 1.3. In addition, in data set [4] (setting [11]), the fold induction at 1 µM was below 1.3. For the same compound, the fold induction at 1 µM in [5] (setting [10]) is below 1.3. Besides, the fold induction at 1 µM in data set [6] (setting [11]) lay within 1.3 to 2. For the same compound, the fold induction at 1 µM in data set [7] (setting [10]) was below 1.3.
`COc1ccc(Nc2ccnc(NCCO)c2)cc1` [example 40, 2-(4-(4-Methoxyphenylamino)pyridin-2-ylamino)ethan-1-ol] showed a melting point of 164 to 165 °C. Besides, in data set [1] (setting [10]), the fold induction at 1 µM is below 1.3. In data set [2] (setting [11]), the fold induction at 1 µM was below 1.3. Besides, the fold induction at 1 µM in [4] (setting [11]) was below 1.3. Moreover, in data set [5] (setting [10]), the fold induction at 1 µM was below 1.3. In addition, the fold induction at 1 µM in data set [6] (setting [11]) is below 1.3. In addition, the fold induction at 1 µM in data set [7] (setting [10]) was below 1.3.
Compound `CCCNc1cc(Nc2ccc(OC)cc2)ncn1` [example 9, N^4-(4-Methoxyphenyl)-N^6-propylpyrimidine-4,6-diamine] had a melting point of 194 to 196 °C. Besides, the fold induction at 1 µM in data set [1] (setting [10]) fell in the range of 1.3 to 2. In data set [2] (setting [11]), the fold induction at 1 µM is above 2. In data set [4] (setting [11]), the fold induction at 1 µM was below 1.3. Moreover, in data set [5] (setting [10]), the fold induction at 1 µM is 1.3 to 2. Moreover, the fold induction at 1 µM in data set [6] (setting [11]) was below 1.3. Moreover, the fold induction at 1 µM in data set [7] (setting [10]) is below 1.3.
`COc1ccc(Nc2cc(NCCO)ncn2)cc1` [example 1, 2-(6-(4-Methoxyphenylamino)pyrimidine-4-ylamino)ethan-1-ol]: the fold induction at 1 µM in [1] (setting [10]) was below 1.3; in [2] (setting [11]) it was below 1.3; in [4] (setting [11]) it was 1.3 to 2; in data set [5] (setting [10]), below 1.3; in [6] (setting [11]), below 1.3; in data set [7] (setting [10]), above 2. The “tetrodotoxin (TTX)-resistance of the Na currents” value in [8] is on record as “moderately increase”. Besides, in data set [9], the “activation kinetics of Ca currents” value is listed as “significantly speeds”.
Compound `OCCNc1cc(Nc2ccc(Oc3ccccc3)cc2)ncn1` [example 8, 2-(6-(4-Phenoxyphenylamino)pyrimidin-4-ylamino)ethan-1-ol] showed a melting point of 154 to 156 °C. For the same compound, the fold induction at 1 µM in data set [1] (setting [10]) was below 1.3. Moreover, in data set [2] (setting [11]), the fold induction at 1 µM is below 1.3. The fold induction at 1 µM in data set [4] (setting [11]) is below 1.3. The fold induction at 1 µM in data set [5] (setting [10]) fell in the range of 1.3 to 2. In addition, in data set [6] (setting [11]), the fold induction at 1 µM was in the range of 1.3 to 2. Moreover, the fold induction at 1 µM in data set [7] (setting [10]) was below 1.3.
Compound `OCCNc1cc(Nc2ccc(Nc3ccccc3)cc2)ncn1` [example 7, 2-(6-(4-(Phenylamino)phenylamino)pyrimidin-4-ylamino)ethan-1-ol] came in with a melting point of 154 to 155 °C. Moreover, in data set [1] (setting [10]), the fold induction at 1 µM was below 1.3. In [2] (setting [11]), the fold induction at 1 µM is below 1.3. The fold induction at 1 µM in [4] (setting [11]) was below 1.3. In data set [5] (setting [10]), the fold induction at 1 µM was below 1.3. Moreover, the fold induction at 1 µM in data set [6] (setting [11]) was below 1.3. For the same compound, in data set [7] (setting [10]), the fold induction at 1 µM was below 1.3.
In turn, `COc1ccc(Nc2cc(NC3CCCCC3)ncn2)cc1` [example 3, N^4-Cyclohexyl-N^6-(4-methoxyphenyl)pyrimidine-4,6-diamine] displayed a melting point of 218 to 219 °C. In data set [1] (C2C12, 192 h), the fold induction at 1 µM lay within 1.3 to 2. Further, the fold induction at 1 µM in data set [2] (P19, 192 h) was above 2. Besides, in data set [4] (P19, 192 h), the fold induction at 1 µM was above 2. In addition, the “luciferase signal in all three reporter assays” value in data set [4] (P19 cells, 1 μM for 8 days) is listed as “increase in the luciferase signal in all three reporter assays”. In addition, the fold induction at 1 µM in data set [5] (C2C12, 192 h) was above 2. For the same compound, the fold induction at 1 µM in data set [6] (P19, 192 h) is above 2. Moreover, in data set [7] (C2C12 cells, 1 μM for 8 days), the “luciferase signal in all three reporter assays” value is listed as “increase in the luciferase signal in all three reporter assays”. Besides, in data set [7] (C2C12, 192 h), the fold induction at 1 µM is above 2.
